Results as given in patent publication EP0796866A1, “Antithrombotic diamides” (ELI LILLY AND COMPANY, priority 1996, dated 1997).
Where a name gives a salt, the structure may show the parent alone.

Assays:
Type in all cases: biochemical
human or animal plasma [1] = assay: prothrombin time (PT) coagulation assay in plasma; details: concentration required to double the clotting time, linear extrapolation; Thromboplastin-C reagent
Procedure: (§1) Dog plasma and rat plasma are obtained from conscious mixed-breed hounds (either sex, hazelton-LRE, Kalamazoo, Michigan, U.S.A.) or from anesthetized male Sprague-Dawley rats (Harlan Sprague-Dawley, Inc., Indianapolis, Indiana, U.S.A.) by venipuncture into 3.8 percent citrate. Fibrinogen is prepared from in-date ACD human blood as the fraction I-2 according to previous procedures and specifications. Smith, Biochem. J., 185, 1-11 (1980); and Smith, et al., Biochemistry, 11, 2958-2967 (1972). Human fibrinogen is also purchased as 98 percent pure/plasmin free from American Diagnostica, Greenwich, Connecticut. Coagulation reagents ACTIN, Thromboplastin, and Human plasma are from Baxter Healthcare Corp., Dade Division, Miami, Florida. […]
(§2) Coagulation assay procedures are as previously described. […] The thrombin time (TT) is measured by adding 0.05 ml saline and 0.05 ml thrombin (10 NIH units/ml) to 0.05 ml test plasma. The activated partial thromboplastin time (APTT) is measured by incubation of 0.05 ml test plasma with 0.05 ml Actin reagent for 120 seconds followed by 0.05 ml CaCl2 (0.02 M). The prothrombin time (PT) is measured by adding 0.05 ml saline and 0.05 ml Thromboplastin-C reagent to 0.05 ml test plasma. […] Each of the particularly preferred examples of the invention listed above was determined to have a TT value of less than 100 ng/mL. […]

human or animal plasma [2] = assay: activated partial thromboplastin time (APTT) coagulation assay in plasma; details: concentration required to double the clotting time, linear extrapolation; Actin reagent, CaCl2
Procedure: as §1, §2

human thrombin = target: T1, human thrombin (Homo sapiens, UniProt P00734); assay: inhibition of the amidase activity of thrombin (chromogenic substrate), Kass; details: hypothetical equilibrium (association) constant thrombin + test compound; mean over a range of concentrations; pH 7.4
T1 construct: purified human thrombin; purchased Enzyme Research Laboratories, South Bend, Indiana
Procedure: The assay is carried out by mixing 50 µl buffer (0.03M Tris, 0.15M NaCl, pH 7.4) with 25 µl of human thrombin solution (purified human thrombin, Enzyme Research Laboratories, South Bend, Indiana, at 8 NIH units/ml) and 25 µl of test compound in a solvent (50% aqueous methanol (v:v)). Then 150 µl of an aqueous solution of the chromogenic substate (at 0.25 mg/ml) are added and the rates of hydrolysis of the substrate are measured by monitoring the reactions at 405 nm for the release of p-nitroaniline. Standard curves are constructed by plotting free thrombin concentration against hydrolysis rate. The hydrolysis rates observed with test compounds are then converted to "free thrombin" values in the respective assays by use of the standard curves. The bound thrombin (bound to test compound) is calculated by subtracting the amount of free thrombin observed in each assay from the known initial amount of thrombin used in the assay. The amount of free inhibitor in each assay is calculated by subtracting the number of moles of bound thrombin from the number of moles of added inhibitor (test compound). […]
Kass is calculated for a range of concentrations of test compounds and the mean value reported in units of liter per mole. […] For example, each of the particularly preferred examples of the invention listed above was determined to have a Kass of at least 5 X 10^6 L/mole.

human or animal plasma [3] = assay: thrombin time (TT) coagulation assay in plasma; details: concentration required to double the clotting time, linear extrapolation; thrombin 10 NIH units/ml
Procedure: as §1, §2

Row | Kd (human thrombin) | SMILES | PT (human or animal plasma [1]) | APTT (human or animal plasma [2]) | TT (human or animal plasma [3])
1 | 12.5 nM | O=C(O)CN[C@H](CC1CCCCC1)C(=O)N1CCC[C@H]1C(=O)NCCCc1c[nH]cn1 [Example 8, N-(carboxymethyl)-D-cyclohexylalanyl-N-[3-(imidazol-4-yl)propyl]-L-prolinamide hydrochloride] | 380 ng/mL | 170 ng/mL | 20 ng/mL
2 | 17.5 nM | O=C(O)CN[C@H](CC1CCCCC1)C(=O)N1CCC[C@H]1C(=O)NC/C=C/c1c[nH]cn1 [Example 7, N-(carboxymethyl)-D-cyclohexylalanyl-N-[(E)-3-(imidazol-4-yl)prop-2-enyl]-L-prolinamide hydrochloride] | 430 ng/mL | 280 ng/mL | 30 ng/mL
